From PMC6417734 (PLoS ONE, 2019)
“And” between values parts separate entries of the source, which are not always exact repeats. Equal entries are not always repeated. Where two headings read alike, the source gives them in different places.

Assays:
[1] = Stability in spiked rat plasma under different storage conditions; type: physicochemical; conditions: for stability in spiked rat plasma, short term and long term storage: LQC and HQC, room temperature and -80 °C for 30 days, acceptance within ±15%; for stability of processed plasma samples in autosampler and after freeze-thaw cycles: autosampler for 24 h, three freeze-thaw cycles; for Processed samples (24 h) Accuracy (%): processed rat plasma samples, autosampler at 10 °C; for long term (1 month) Accuracy (%) / Short term (8 h) Accuracy (%) / Freeze/Thaw (3 cycle) Accuracy (%): spiked rat plasma; for long term (1 month) Accuracy (%): -80 °C for 30 days; for Short term (8 h) Accuracy (%): room temperature; for Freeze/Thaw (3 cycle) Accuracy (%): three cycle from -80 °C to room temperature
Procedure: The short-term (at room temperature for 8 h); post preparation (in autosampler at 10 °C for 24 h), freeze-thaw (three cycle from ─80 °C to room temperature) and long-term (─80 °C for 30 days) stabilities were determined. All stabilities results were measured against freshly spiked CCs and acceptance were limited to be within ±15%.

[2] = test system: SUA levels; conditions: ALP dose of 300 mg/day; ref [10]–[12]; cited from earlier work
[3] = Oral pharmacokinetic study in rats (plasma, UPHILIC-MS/MS, non-compartmental analysis); type: in vivo, wistar albino rats; conditions: for Kel: in h-1 (unit assumed); for AUClast / AUCtot: in ng·h/mL; for thalf: in h (unit assumed)
Procedure: Six healthy rats weighing between 180–220 g were received and maintained under standard laboratory conditions before the experiments. […] Blood samples (approx.0.5 ml) were collected at 0, 0.33, 0.66, 1, 2, 3, 5, 8, 12 and 24 h in lithium heparinized tubes after dosing. Plasma was separated by centrifugation for 8 min at 4000 rpm and stored at −80 °C till further analysis.
The non-compartmental model was used to calculate the pharmacokinetic parameters using WinNonlin software (Pharsight Co., Mountain View, CA, USA). The maximum plasma concentration (Cmax), time to achieve this (Tmax), area under curve zero to last and infinity (AUC0-24; AUC0-∞), half-life (T½), elimination rate constant (Kel) and mean residence time were measured. Statistical parameters like mean, standard deviation and % RSD were calculated by using MS-Excel 2013 (Microsoft).

[4] = HQC nominal value (ALP 7000, OXP 10000, LES 8000 ng/mL)
[5] = LQC nominal value (ALP 70, OXP 100, LES 80 ng/mL)
[6] = Mean of six rats (supplement), oral ALP 20 mg/kg and LES 15 mg/kg
[7] = Wistar albino, rat, plasma, po, 20 mg/kg, Mean line of six rats (supplement), oral ALP 20 mg/kg and LES 15 mg/kg, read-out: Tmax
[8] = Wistar albino, rat, plasma, po, 20 mg/kg, Mean of six rats (supplement), oral ALP 20 mg/kg and LES 15 mg/kg
[9] = Wistar albino, rat, plasma, po, 20 mg/kg, Mean of six rats (supplement), oral ALP 20 mg/kg and LES 15 mg/kg, read-out: AUClast
[10] = Wistar albino, rat, plasma, po, 20 mg/kg, Mean of six rats (supplement), oral ALP 20 mg/kg and LES 15 mg/kg, read-out: Cmax
[11] = Wistar albino, rat, plasma, po, 20 mg/kg, Mean of six rats (supplement), oral ALP 20 mg/kg and LES 15 mg/kg, read-out: MRT
[12] = Wistar albino, rat, plasma, po, 20 mg/kg, individual animal (rats R1-R6), oral ALP 20 mg/kg and LES 15 mg/kg
[13] = Wistar albino, rat, plasma, po, 20 mg/kg, individual animal (rats R1-R6), oral ALP 20 mg/kg and LES 15 mg/kg, read-out: AUClast
[14] = Wistar albino, rat, plasma, po, 20 mg/kg, individual animal (rats R1-R6), oral ALP 20 mg/kg and LES 15 mg/kg, read-out: Cmax
[15] = Wistar albino, rat, plasma, po, 20 mg/kg, individual animal (rats R1-R6), oral ALP 20 mg/kg and LES 15 mg/kg, read-out: MRT
[16] = Wistar albino, rat, plasma, po, 20 mg/kg, rats, oral ALP 20 mg/kg, read-out: Tmax
[17] = Wistar albino, rat, plasma, po, rat plasma, oral co-administration of ALP 20 mg/kg and LES 15 mg/kg, mean ± SD, six rats, read-out: Cmax
[18] = Wistar albino, rat, plasma, po, rat plasma, oral co-administration of ALP 20 mg/kg and LES 15 mg/kg, mean ± SD, read-out: AUC0-24
[19] = Wistar albino, rat, plasma, po, rat plasma, oral co-administration of ALP 20 mg/kg and LES 15 mg/kg, mean ± SD, read-out: MRT
[20] = Wistar albino, rat, plasma, po, rat plasma, oral co-administration of ALP 20 mg/kg and LES 15 mg/kg, six rats, read-out: Tmax
[21] = individual animal (rats R1-R6), oral ALP 20 mg/kg and LES 15 mg/kg, in h
[22] = individual animal (rats R1-R6), oral ALP 20 mg/kg and LES 15 mg/kg
[23] = individual animal (rats R1-R6), oral ALP 20 mg/kg and LES 15 mg/kg, in ng/mL

Compound | stability in spiked rat plasma, short term and long term storage [1] | stability of processed plasma samples in autosampler and after freeze-thaw cycles [1] | Processed samples (24 h) Accuracy (%) [1, 4] [%] | Processed samples (24 h) Accuracy (%) [1, 5] [%] | long term (1 month) Accuracy (%) [1, 4] [%] | Short term (8 h) Accuracy (%) [1, 4] [%] | Freeze/Thaw (3 cycle) Accuracy (%) [1, 4] [%] | long term (1 month) Accuracy (%) [1, 5] [%] | Short term (8 h) Accuracy (%) [1, 5] [%] | Freeze/Thaw (3 cycle) Accuracy (%) [1, 5] [%] | Kel [3, 6] | Tmax [3, 7] [h] | Cmax [3, 17] [ng/mL] | AUC(0-t) [3, 18] [ng·h/mL] | MRT [3, 19] [h] | Tmax [3, 20] [h] | MRT [3, 21] | Cmax [3, 23] | AUClast [3, 22] | AUCtot [3, 22] | other results
Oc1ncnc2[nH]ncc12 [ALP, Allopurinol] | acceptable limits | stable | 99.34 | 96.54 | 88.71 | 90.84 | 100.54 | 87.23 | 93.08 | 108.60 | 0.5391 | 0.66 | 2030 ± 509 | 3510 ± 571 | 1.98 ± 0.32 | 0.66 | 1.607 and 2.233 and 2.477 and 1.777 and 1.801 | 1667.45 and 2378.66 and 2694.26 and 2321.62 and 1731.2 | 2635.21 and 3641.95 and 4404.97 and 3470.35 and 3598.67 | 2743.88 and 3774.36 and 4653.35 and 3656.48 and 3742.26 | patients who do not achieve sustained reductions in SUA levels (< 6 mg/dL) [2]: > 50%; AUC [3, 8]: 3660 ng·h/mL; AUC(0-t) [3, 9]: 3510 ng·h/mL; Cmax [3, 10]: 2030 ng/mL; MRT [3, 11]: 1.99 h; AUC [3, 12]: 3390 ng·h/mL; AUC(0-t) [3, 13]: 3320 ng·h/mL; Cmax [3, 14]: 1380 ng/mL; MRT [3, 15]: 2.04 h; Tmax ([3]; Wistar albino, rat, plasma, po, 20 mg/kg, individual animal (rats R1-R6), oral ALP 20 mg/kg and LES 15 mg/kg, read-out: Tmax): 0.33 h; Tmax [3, 16]: 0.66 h; Kel [3, 22]: 0.3461; detectability in plasma after administration ([3]; rats, post administration of 20 mg/kg of ALP): undetectable after 8 h
O=C(O)CSc1nnc(Br)n1-c1ccc(C2CC2)c2ccccc12 [LES, Lesinurad] | acceptable limits | stable | 97.01 | 112.54 | 88.59 | 95.12 | 90.13 | 89.81 | 91.26 | 94.8 | 0.09441 | – | 8270 ± 191 | 65910 ± 139 | 12.4 ± 4.51 | 1.5 | 20.1145 and 8.709 and 12.6844 and 8.471 and 9.848 and 14.9899 | 5494.01 and 8320.88 and 6878.96 and 11031.4 and 8808.81 and 9091.69 | 64836.4 and 61847.4 and 85561.6 and 56410.3 and 78552.6 | 68738 and 73776.1 and 90181.7 and 60657.3 and 99665.6 | thalf [3, 6]: 8.497; Tmax ([3]; Wistar albino, rat, plasma, po, 15 mg/kg, Mean line of six rats (supplement), oral ALP 20 mg/kg and LES 15 mg/kg, read-out: Tmax): 1.5 h; AUC ([3]; Wistar albino, rat, plasma, po, 15 mg/kg, Mean of six rats (supplement), oral ALP 20 mg/kg and LES 15 mg/kg): 77100 ng·h/mL; AUC(0-t) ([3]; Wistar albino, rat, plasma, po, 15 mg/kg, Mean of six rats (supplement), oral ALP 20 mg/kg and LES 15 mg/kg, read-out: AUClast): 65900 ng·h/mL; Cmax ([3]; Wistar albino, rat, plasma, po, 15 mg/kg, Mean of six rats (supplement), oral ALP 20 mg/kg and LES 15 mg/kg, read-out: Cmax): 8270 ng/mL; MRT ([3]; Wistar albino, rat, plasma, po, 15 mg/kg, Mean of six rats (supplement), oral ALP 20 mg/kg and LES 15 mg/kg, read-out: MRT): 12.5 h; AUC ([3]; Wistar albino, rat, plasma, po, 15 mg/kg, individual animal (rats R1-R6), oral ALP 20 mg/kg and LES 15 mg/kg): 69800 ng·h/mL; AUC(0-t) ([3]; Wistar albino, rat, plasma, po, 15 mg/kg, individual animal (rats R1-R6), oral ALP 20 mg/kg and LES 15 mg/kg, read-out: AUClast): 48200 ng·h/mL; Tmax [3, 21]: 1 and 3 and 2 and 5 and 0.66; thalf [3, 22]: 13.589 and 5.574 and 9.1146 and 5.126 and 5.707 and 11.8685; Kel [3, 22]: 0.05101 and 0.1244 and 0.07605 and 0.1352 and 0.1214 and 0.0584; ratios of AUC (AUC0-24/ AUC0-∞) ([3]; rats, oral ALP 20 mg/kg and LES 15 mg/kg): ≥ 85%
O=c1[nH]c(=O)c2c[nH]nc2[nH]1 [OXP, oxypurinol] | acceptable limits | stable | 102.65 | 104.72 | 91.04 | 95.12 | 92.67 | 92.43 | 96.85 | 102.55 | 0.1191 | 2 | 7500 ± 156 | 44800 ± 373 | 7.58 ± 1.52 | 2 | 6.956 and 5.837 and 6.059 and 8.731 and 9.5786 | 7192.39 and 10535.3 and 7573.56 and 6585.93 and 6831.19 | 49418.6 and 48647.7 and 44044.7 and 42639.7 and 44576.2 | 50759.5 and 50350.9 and 45393.1 and 45993.3 and 50026.1 | AUC [3, 8]: 47400 ng·h/mL; AUC(0-t) [3, 9]: 44800 ng·h/mL; Cmax [3, 10]: 7500 ng/mL; MRT [3, 11]: 7.58 h; AUC [3, 12]: 41900 ng·h/mL; AUC(0-t) [3, 13]: 39500 ng·h/mL; Cmax [3, 14]: 6250 ng/mL; MRT [3, 15]: 8.33 h; Tmax [3, 16]: 2 h; Tmax [3, 21]: 3 and 0.66 and 1
